# Reference: PubChem BioAssay AID296 (DTP/NCI, 2004)
# “And” between values parts separate entries of the source, which are not always exact repeats. Identical values can stand only once. Records with an inconclusive call do not appear.
# Tested on: MX-1 breast xenograft, nude mice, tumor weight T/C
# Test: NCI In Vivo Anticancer Drug Screen. Data for tumor model Human Mammary Carcinoma MX-1 Xenograft (intrarenal inoculation) in NU/NU Swiss (nude) mice
# Conditions: endpoint: mean tumor weight change, higher = larger tumour
# Summary of the method: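 Activity is given as a ratio, with each measurement in the compound-treated arm divided by the matching measurement in vehicle-dosed controls. Tumour size or survival serves as the measured parameter.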
# [1] = dose: 300.0 mg/kg/injection, schedule: Q04DX003 (sc), vehicle: saline
# [2] = dose: 300.0 mg/kg/injection, schedule: Q04DX003 (sc), vehicle: Klucel (hydroxypropylcellulose) (HPC)
# [3] = dose: 600.0 mg/kg/injection, schedule: Q04DX003 (sc), vehicle: Klucel (hydroxypropylcellulose) (HPC)
# [4] = dose: 1200.0 mg/kg/injection, schedule: Q04DX003 (sc), vehicle: Klucel (hydroxypropylcellulose) (HPC)
# [5] = dose: 1200.0 mg/kg/injection, schedule: Q04DX003 (sc), vehicle: saline with Tween-80
# [6] = dose: 2400.0 mg/kg/injection, schedule: Q04DX003 (sc), vehicle: saline with Tween-80
# [7] = dose: 300.0 mg/kg/injection, schedule: Q04DX003 (sc), vehicle: saline with Tween-80
# [8] = dose: 600.0 mg/kg/injection, schedule: Q04DX003 (sc), vehicle: saline with Tween-80
# [9] = dose: 2400.0 mg/kg/injection, schedule: Q04DX003 (sc), vehicle: Klucel (hydroxypropylcellulose) (HPC)
# [10] = dose: 50.0 mg/kg/injection, schedule: Q04DX003 (sc), vehicle: water
# [11] = dose: 100.0 mg/kg/injection, schedule: Q04DX003 (sc), vehicle: water
smiles,measurement,setting,value
O=C(NP(=O)(N1CC1)N1CC1)c1cc(I)ccc1I,T/C,"dose: 37.5 mg/kg/injection, schedule: Q04DX003 (sc), vehicle: saline",23 % of control
same,T/C,"dose: 75.0 mg/kg/injection, schedule: Q04DX003 (sc), vehicle: suspension in saline",-60 % of control
same,T/C,"dose: 150.0 mg/kg/injection, schedule: Q04DX003 (sc), vehicle: saline",-9 % of control
same,T/C,"dose: 150.0 mg/kg/injection, schedule: Q04DX003 (sc), vehicle: suspension in saline",11 % of control
same,T/C,[1],-100 % of control
same,T/C,"dose: 300.0 mg/kg/injection, schedule: Q04DX003 (sc), vehicle: suspension in saline",-27 % of control
same,T/C,"dose: 600.0 mg/kg/injection, schedule: Q04DX003 (sc), vehicle: suspension in saline",2 % of control
c1ccc(CN2CCOC2)cc1,T/C,"dose: 25.0 mg/kg/injection, schedule: Q01DX010 (sc), vehicle: saline",60 % of control
same,T/C,"dose: 50.0 mg/kg/injection, schedule: Q01DX010 (sc), vehicle: saline",78 % of control
same,T/C,"dose: 100.0 mg/kg/injection, schedule: Q01DX010 (sc), vehicle: saline",70 % of control
same,T/C,"dose: 200.0 mg/kg/injection, schedule: Q01DX010 (sc), vehicle: saline",47 % of control
C(C#CCN1CCOCC1)#CCN1CCOCC1,T/C,[2],72 % of control
same,T/C,[3],84 % of control
same,T/C,[4],61 % of control
CC/C(=C(\c1ccccc1)c1ccc(OCCN(C)C)cc1)c1ccccc1,T/C,"dose: 25.0 mg/kg/injection, schedule: Q01DX010 (sc), vehicle: Klucel (hydroxypropylcellulose) (HPC)",171 % of control
same,T/C,"dose: 50.0 mg/kg/injection, schedule: Q01DX010 (sc), vehicle: Klucel (hydroxypropylcellulose) (HPC)",178 % of control
same,T/C,"dose: 100.0 mg/kg/injection, schedule: Q01DX010 (sc), vehicle: Klucel (hydroxypropylcellulose) (HPC)",83 % of control
same,T/C,"dose: 100.0 mg/kg/injection, schedule: Q04DX003 (sc), vehicle: suspension in saline",61 % of control
same,T/C,"dose: 200.0 mg/kg/injection, schedule: Q01DX010 (sc), vehicle: Klucel (hydroxypropylcellulose) (HPC)",240 % of control
same,T/C,"dose: 200.0 mg/kg/injection, schedule: Q04DX003 (sc), vehicle: suspension in saline",68 % of control
same,T/C,"dose: 400.0 mg/kg/injection, schedule: Q04DX003 (sc), vehicle: suspension in saline",89 % of control
same,T/C,"dose: 800.0 mg/kg/injection, schedule: Q04DX003 (sc), vehicle: suspension in saline",73 % of control
C[C@]12CC[C@@H]3c4ccc(OC(=O)Cc5ccc(N(CCCl)CCCl)cc5)cc4CC[C@H]3[C@@H]1CC[C@@H]2OC(=O)Cc1ccc(N(CCCl)CCCl)cc1,T/C,"dose: 200.0 mg/kg/injection, schedule: Q04DX003 (sc), vehicle: saline with Tween-80",58 % of control
same,T/C,"dose: 400.0 mg/kg/injection, schedule: Q04DX003 (sc), vehicle: saline with Tween-80",50 % of control
same,T/C,"dose: 800.0 mg/kg/injection, schedule: Q04DX003 (sc), vehicle: saline with Tween-80",33 % of control
same,T/C,[5],36 % of control
same,T/C,"dose: 1600.0 mg/kg/injection, schedule: Q04DX003 (sc), vehicle: saline with Tween-80",7 % of control and 26 % of control
same,T/C,"dose: 2000.0 mg/kg/injection, schedule: Q04DX003 (sc), vehicle: saline with Tween-80",21 % of control
same,T/C,[6],35 % of control
Nc1nc(N)c2cc(S(=O)(=O)c3ccccc3)ccc2n1,T/C,"dose: 150.0 mg/kg/injection, schedule: Q04DX003 (sc), vehicle: saline with Tween-80",160 % of control
same,T/C,[7],171 % of control
same,T/C,[8],185 % of control
same,T/C,[5],152 % of control
Cc1cc(N(CC(C)Br)CC(C)Br)ccc1N=Nc1ccccc1C(=O)O (configuration not stated),T/C,"dose: 3.13 mg/kg/injection, schedule: Q01DX010 (sc), vehicle: saline with Tween-80",10 % of control and 12 % of control
same,T/C,"dose: 6.25 mg/kg/injection, schedule: Q01DX010 (sc), vehicle: saline with Tween-80",-46 % of control
same,T/C,"dose: 12.5 mg/kg/injection, schedule: Q01DX010 (sc), vehicle: saline with Tween-80",-79 % of control
CCNC(C)(C)C(SSS)c1ccco1 (configuration not stated),T/C,"dose: 150.0 mg/kg/injection, schedule: Q04DX003 (sc), vehicle: Klucel (hydroxypropylcellulose) (HPC)",102 % of control
same,T/C,[2],97 % of control
same,T/C,[3],80 % of control
same,T/C,[4],86 % of control
COC1C(O)C(C)OC(OC2C(Oc3cccc4c(O)c5c(=O)oc6ccc(C)c7c(=O)oc(c34)c5c67)OC(C)C(O)C2O)C1O (configuration not stated),T/C,[2],90 % of control
same,T/C,[3],94 % of control
same,T/C,[4],70 % of control
same,T/C,[9],49 % of control
O=C(NC(Cc1ccc(I)cc1)C(=O)O)c1ccc(Br)cc1 (configuration not stated),T/C,"dose: 75.0 mg/kg/injection, schedule: Q04DX003 (ip), vehicle: sodium bicarbonate",-67 % of control
C1CC[N-]CC1.[Cl][Pt+2][Cl].[NH-]C1CC1,T/C,"dose: 25.0 mg/kg/injection, schedule: Q04DX003 (sc), vehicle: water",60 % of control
same,T/C,"dose: 50.0 mg/kg/injection, schedule: Q04DX003 (sc), vehicle: Klucel (hydroxypropylcellulose) (HPC)",34 % of control and 55 % of control
same,T/C,[10],11 % of control
same,T/C,[11],-83 % of control
F[B-](F)(F)F,T/C,"dose: 300.0 mg/kg/injection, schedule: Q04DX003 (sc), vehicle: gum acacia",106 % of control
same,T/C,"dose: 600.0 mg/kg/injection, schedule: Q04DX003 (sc), vehicle: gum acacia",104 % of control
same,T/C,"dose: 1200.0 mg/kg/injection, schedule: Q04DX003 (sc), vehicle: gum acacia",70 % of control
COc1cc2c(c(OC)c1OC)-c1ccc(OC)c(=O)cc1[C@@H](NC(=O)CCl)CC2,T/C,"dose: 1.25 mg/kg/injection, schedule: Q04DX003 (sc), vehicle: saline with Tween-80",90 % of control
same,T/C,"dose: 2.5 mg/kg/injection, schedule: Q04DX003 (sc), vehicle: saline with Tween-80",64 % of control
same,T/C,"dose: 5.0 mg/kg/injection, schedule: Q04DX003 (sc), vehicle: saline with Tween-80",21 % of control
same,T/C,"dose: 10.0 mg/kg/injection, schedule: Q04DX003 (sc), vehicle: saline with Tween-80",-92 % of control
Nc1nc(N)c2c(ccc3c2ccn3Cc2cccc([N+](=O)[O-])c2)n1,T/C,"dose: 37.5 mg/kg/injection, schedule: Q04DX003 (sc), vehicle: saline with Tween-80",98 % of control
same,T/C,"dose: 75.0 mg/kg/injection, schedule: Q04DX003 (sc), vehicle: saline with Tween-80",94 % of control
N#CC(OC1OC(COC2OC(CO)C(O)C(O)C2O)C(O)C(O)C1O)c1ccccc1 (configuration not stated),T/C,[1],67 % of control
same,T/C,"dose: 600.0 mg/kg/injection, schedule: Q04DX003 (sc), vehicle: saline",83 % of control
same,T/C,"dose: 1200.0 mg/kg/injection, schedule: Q04DX003 (sc), vehicle: saline",71 % of control
same,T/C,"dose: 2400.0 mg/kg/injection, schedule: Q04DX003 (sc), vehicle: saline",75 % of control
O=c1c(O)c(-c2cc(O)c(O)c(O)c2)oc2cc(O)cc(O)c12,T/C,"dose: 3.0 mg/kg/injection, schedule: Q04DX003 (sc), vehicle: saline with Tween-80",117 % of control
same,T/C,"dose: 6.0 mg/kg/injection, schedule: Q04DX003 (sc), vehicle: saline with Tween-80",97 % of control
same,T/C,"dose: 12.0 mg/kg/injection, schedule: Q04DX003 (sc), vehicle: saline with Tween-80",108 % of control
same,T/C,"dose: 24.0 mg/kg/injection, schedule: Q04DX003 (sc), vehicle: saline with Tween-80",81 % of control
COc1cccc2c1C(=O)c1c(O)c3c(c(O)c1C2=O)CC(O)(/C(C)=N/NC(=O)CCCCC(=O)N/N=C(\C)C1(O)Cc2c(O)c4c(c(O)c2C(OC2CC(N)C(O)C(C)O2)C1)C(=O)c1c(OC)cccc1C4=O)CC3OC1CC(N)C(O)C(C)O1 (configuration not stated),T/C,[10],62 % of control
same,T/C,[11],2 % of control
[O-][n+]1c(CN2CCCCC2)nc2cccc3c2c1-c1ccccc1-3,T/C,[2],94 % of control
same,T/C,[3],102 % of control
same,T/C,[4],105 % of control
same,T/C,[9],70 % of control
CCCCCC1c2cc(O)ccc2OC1N1CCOCC1 (configuration not stated),T/C,[7],72 % of control
same,T/C,[8],71 % of control
same,T/C,[5],90 % of control
same,T/C,[6],67 % of control
O=C1C=C(C2OC(CO)C(O)C2O)C(=O)N1 (configuration not stated),T/C,"dose: 6.25 mg/kg/injection, schedule: Q01DX010 (sc), vehicle: saline",79 % of control
same,T/C,"dose: 12.5 mg/kg/injection, schedule: Q01DX010 (sc), vehicle: saline",123 % of control
CCCCCCCCCCCCCCC/C([O-])=N/[N+](C)(C)CC(C)O (configuration not stated),T/C,"dose: 200.0 mg/kg/injection, schedule: Q04DX003 (sc), vehicle: Klucel (hydroxypropylcellulose) (HPC)",95 % of control
same,T/C,"dose: 800.0 mg/kg/injection, schedule: Q04DX003 (sc), vehicle: Klucel (hydroxypropylcellulose) (HPC)",100 % of control
same,T/C,"dose: 1600.0 mg/kg/injection, schedule: Q04DX003 (sc), vehicle: Klucel (hydroxypropylcellulose) (HPC)",91 % of control
same,T/C,[9],63 % of control
